In Sander's compilation of Henry's law constants:
Where “and” joins values, the source holds several entries; their conditions need not be identical. Identical values can stand only once.

Key:
[1] = Henry solubility constant Hcp at 298.15 K (mol/(m3 Pa))
[2] = Henry solubility constant Hcp at 294 K (mol/(m3 Pa))
[3] = Henry solubility constant Hcp at 313 K (mol/(m3 Pa)); details: reference: Vitenberg et al. (1974)
[4] = Henry solubility constant Hcp at 301 K (mol/(m3 Pa)); details: reference: Nelson and Hoff (1968)
[5] = Henry solubility constant Hcp at 308 K (mol/(m3 Pa)); details: reference: Guo and Brimblecombe (2007)
[6] = Henry solubility constant Hcp at 290 K (mol/(m3 Pa)); details: reference: Thomas et al. (2006)
[7] = Henry solubility constant Hcp at 283 K (mol/(m3 Pa))
[8] = Henry solubility constant Hcp at 297 K (mol/(m3 Pa))
[9] = Henry solubility constant Hcp at 311 K (mol/(m3 Pa)); details: reference: Grollman (1929)
[10] = Henry solubility constant Hcp at 288 K (mol/(m3 Pa))
[11] = Henry solubility constant Hcp at 303 K (mol/(m3 Pa)); details: reference: Richon et al. (1985)
[12] = Henry solubility constant Hcp at 293 K (mol/(m3 Pa))
[13] = Henry solubility constant Hcp at 284 K (mol/(m3 Pa)); details: reference: George et al. (1994b)
[14] = Henry solubility constant Hcp at 278 K (mol/(m3 Pa)); details: reference: De Bruyn et al. (1995a)
[15] = reference: Murphy et al. (1983a)
[16] = reference: Straver and de Loos (2005)
[17] = reference: Vitenberg et al. (1974)
[18] = reference: Elliott and Rowland (1993)
[19] = reference: Glew and Moelwyn-Hughes (1953)
[20] = reference: Swain and Thornton (1962)
[21] = reference: Gan and Yates (1996)
[22] = reference: Mirabel et al. (1996)

Clc1cc(Cl)c(-c2ccc(Cl)c(Cl)c2Cl)cc1Cl [2,2',3,4,4',5'-hexachlorobiphenyl]
Henry solubility constant Hcp [1, 15]: 0.021
Henry solubility constant Hcp at 294 K ([2]; reference: Brownawell (1986)): 0.14

Clc1ccc(Cl)c(-c2ccc(Cl)c(Cl)c2)c1 [2,3',4',5-tetrachlorobiphenyl]
Henry solubility constant Hcp [1, 15]: 0.049
Henry solubility constant Hcp at 294 K ([2]; reference: Brownawell (1986)): 0.11

Clc1ccc(-c2ccccc2Cl)cc1 [2,4'-dichlorobiphenyl]
Henry solubility constant Hcp ([1]; reference: Charles and Destaillats (2005)): 0.023
Henry solubility constant Hcp [1, 15]: 0.045
Henry solubility constant Hcp at 294 K ([2]; reference: Brownawell (1986)): 0.057

CCCC(C)=O [2-pentanone]
Henry solubility constant Hcp at 313 K [3]: 0.11
Henry solubility constant Hcp ([1]; reference: Chai et al. (2005)): 0.1
Henry solubility constant Hcp ([1]; reference: Hawthorne et al. (1985)): 0.09
Henry solubility constant Hcp ([1]; reference: Hovorka et al. (2019)): 0.13
Henry solubility constant Hcp ([1]; reference: Ji and Evans (2007)): 0.16
Henry solubility constant Hcp ([1]; reference: Kim et al. (2000)): 0.11
Henry solubility constant Hcp [1, 16]: 0.086
Henry solubility constant Hcp [1, 17]: 0.17
Henry solubility constant Hcp at 301 K [4]: 0.092

CC(C)CC=O [3-methylbutanal]
Henry solubility constant Hcp ([1]; reference: Bruneel et al. (2016)): 0.011
Henry solubility constant Hcp ([1]; reference: Pollien et al. (2003)): 0.026
Henry solubility constant Hcp ([1]; reference: Wieland et al. (2015)): 0.024
Henry solubility constant Hcp at 301 K [4]: 0.02

O=[N+]([O-])c1cccc(O)c1 [3-nitrophenol]
Henry solubility constant Hcp at 308 K [5]: 160

O=[N+]([O-])c1ccc(O)cc1 [4-nitrophenol]
Henry solubility constant Hcp at 308 K [5]: 210

CBr [bromomethane]
Henry solubility constant Hcp at 290 K [6]: 0.002
Henry solubility constant Hcp ([1]; reference: De Bruyn and Saltzman (1997)): 0.0018
Henry solubility constant Hcp [1, 18]: 0.0017
Henry solubility constant Hcp [1, 19]: 0.0016
Henry solubility constant Hcp [1, 20]: 0.0015
Henry solubility constant Hcp at 294 K [2, 21]: 0.0014

C=CCl [chloroethene]
Henry solubility constant Hcp at 283 K ([7]; reference: Pearson and McConnell (1975)): 8.5e-06
Henry solubility constant Hcp ([1]; reference: Chen et al. (2012)): 0.00041
Henry solubility constant Hcp ([1]; reference: Gossett (1987)): 0.00037

Cl/C=C\CCl [cis-1,3-dichloropropene]
Henry solubility constant Hcp at 290 K [6]: 0.01
Henry solubility constant Hcp ([1]; reference: Leistra (1970)): 0.005

C[Si]1(C)O[Si](C)(C)O[Si](C)(C)O[Si](C)(C)O[Si](C)(C)O[Si](C)(C)O1 [dodecamethylcyclohexasiloxane]
Henry solubility constant Hcp at 297 K ([8]; reference: Xu and Kropscott (2012)): 4e-07

C=C [ethene]
Henry solubility constant Hcp at 311 K [9]: 3.4e-05
Henry solubility constant Hcp ([1]; reference: Maaßen (1995)): 4.9e-05
Henry solubility constant Hcp ([1]; reference: Morrison and Billett (1952)): 4.7e-05
Henry solubility constant Hcp ([1]; reference: Orcutt and Seevers (1937a)): 4.8e-05
Henry solubility constant Hcp ([1]; reference: Reichl (1995)): 4.8e-05
Henry solubility constant Hcp ([1]; reference: Winkler (1906)): 4.8e-05

CCOC(C)=O [ethyl ethanoate]
Henry solubility constant Hcp at 288 K ([10]; reference: Ioffe et al. (1984)): 0.13
Henry solubility constant Hcp at 288 K ([10]; reference: Pividal et al. (1992)): 0.11
Henry solubility constant Hcp at 303 K [11]: 0.043
Henry solubility constant Hcp ([1]; reference: Ammari and Schroen (2019)): 0.052
Henry solubility constant Hcp ([1]; reference: Aprea et al. (2007)): 0.051
Henry solubility constant Hcp ([1]; reference: Butler and Ramchandani (1935)): 0.074
Henry solubility constant Hcp ([1]; reference: Druaux et al. (1998)): 0.066
Henry solubility constant Hcp ([1]; reference: Fenclová et al. (2014)): 0.062
Henry solubility constant Hcp ([1]; reference: Jones et al. (1988)): 0.062
Henry solubility constant Hcp ([1]; reference: Kieckbusch and King (1979b)): 0.058
Henry solubility constant Hcp ([1]; reference: Kutsuna and Kaneyasu (2021)): 0.059
Henry solubility constant Hcp ([1]; reference: Kutsuna et al. (2005)): 0.059
Henry solubility constant Hcp ([1]; reference: Landy et al. (1995)): 0.057
Henry solubility constant Hcp at 301 K [4]: 0.057

C#C [ethyne]
Henry solubility constant Hcp at 311 K [9]: 0.00033
Henry solubility constant Hcp at 288 K ([10]; reference: Billitzer (1902)): 0.00051
Henry solubility constant Hcp ([1]; reference: Gatterer (1926)): 0.00042
Henry solubility constant Hcp ([1]; reference: Jadkar and Chaudhari (1980)): 0.0004
Henry solubility constant Hcp ([1]; reference: Kremann and Hönel (1913)): 0.00037
Henry solubility constant Hcp ([1]; reference: Maillard and Rosenthal (1952)): 0.00025
Henry solubility constant Hcp ([1]; reference: Winkler (1906)): 0.00041

CI [iodomethane]
Henry solubility constant Hcp ([1]; reference: Balls (1980)): 0.002
Henry solubility constant Hcp [1, 18]: 0.002
Henry solubility constant Hcp [1, 19]: 0.0019
Henry solubility constant Hcp ([1]; reference: Hunter-Smith et al. (1983)): 0.0019
Henry solubility constant Hcp [1, 20]: 0.0018
Henry solubility constant Hcp at 294 K [2, 21]: 0.0019

[N]=O [nitrogen monoxide]
Henry solubility constant Hcp at 297 K ([8]; reference: Zafiriou and McFarland (1980)): 1.3e-05
Henry solubility constant Hcp at 288 K ([10]; reference: Komiyama and Inoue (1980)): 2.3e-05
Henry solubility constant Hcp ([1]; reference: Komiyama and Inoue (1978)): 1.9e-05
Henry solubility constant Hcp ([1]; reference: Winkler (1901)): 1.9e-05

CC(=O)OO[N+](=O)[O-] [peroxyacetyl nitrate]
Henry solubility constant Hcp at 293 K ([12]; reference: Kames and Schurath (1995)): 0.04
Henry solubility constant Hcp at 283 K ([7]; reference: Holdren et al. (1984)): 0.049
Henry solubility constant Hcp ([1]; reference: Easterbrook et al. (2023)): 0.03
Henry solubility constant Hcp ([1]; reference: Frenzel et al. (2000)): 0.023
Henry solubility constant Hcp ([1]; reference: Kames et al. (1991)): 0.028

CC(C)=O [propanone]
Henry solubility constant Hcp at 293 K ([12]; reference: Yu (1992)): 0.17
Henry solubility constant Hcp at 297 K ([8]; reference: Nozière and Riemer (2003)): 0.27
Henry solubility constant Hcp at 303 K [11]: 0.19
Henry solubility constant Hcp ([1]; reference: Benkelberg et al. (1995)): 0.27
Henry solubility constant Hcp ([1]; reference: Betterton (1991)): 0.32
Henry solubility constant Hcp ([1]; reference: Burnett (1963)): 0.28
Henry solubility constant Hcp ([1]; reference: Chai et al. (2005)): 0.24
Henry solubility constant Hcp ([1]; reference: Ioffe et al. (1984)): 0.2
Henry solubility constant Hcp ([1]; reference: Ji and Evans (2007)): 0.26
Henry solubility constant Hcp ([1]; reference: Lichtenbelt and Schram (1985)): 0.26
Henry solubility constant Hcp ([1]; reference: Poulain et al. (2010)): 0.29
Henry solubility constant Hcp ([1]; reference: Schoene and Steinhanses (1985)): 0.32
Henry solubility constant Hcp ([1]; reference: Snider and Dawson (1985)): 0.25
Henry solubility constant Hcp [1, 16]: 0.24
Henry solubility constant Hcp ([1]; reference: Strekowski and George (2005)): 0.26
Henry solubility constant Hcp [1, 17]: 0.25 and 0.32
Henry solubility constant Hcp ([1]; reference: Vitenberg et al. (1975)): 0.25
Henry solubility constant Hcp at 301 K [4]: 0.31

Cl/C=C/CCl [trans-1,3-dichloropropene]
Henry solubility constant Hcp at 290 K [6]: 0.015
Henry solubility constant Hcp ([1]; reference: Leistra (1970)): 0.0081

O=C(Cl)C(F)(F)F [trifluoroacetylchloride]
Henry solubility constant Hcp at 284 K [13]: 0.02
Henry solubility constant Hcp at 278 K [14]: 0.0027
Henry solubility constant Hcp [1, 22]: 0.02

O=C(F)C(F)(F)F [trifluoroacetylfluoride]
Henry solubility constant Hcp at 284 K [13]: 0.03
Henry solubility constant Hcp at 278 K [14]: 0.0095
Henry solubility constant Hcp [1, 22]: 0.03
